Data published in PubChem BioAssay AID248 (DTP/NCI, 2004).
“And” between values parts separate entries of the source, which are not always exact repeats. Equal entries are not always repeated. Toxic doses and inconclusive results are not listed.

System: L1210 leukemia ip in BDF1 mice, survival T/C
Test: NCI In Vivo Anticancer Drug Screen. Data for tumor model L1210 Leukemia (intraperitoneal) in B6D2F1 (BDF1) mice
Settings: endpoint: mean survival time, higher = longer survival
Procedure, shortened: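 Survival endpoint. Drug-treated group vs vehicle group, expressed as T divided by C. Tumor passaged by transplantation.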

[1] = dose: 100.0 mg/kg/injection, schedule: Q04DX003 (ip), vehicle: saline with Tween-80
[2] = dose: 200.0 mg/kg/injection, schedule: Q04DX003 (ip), vehicle: saline with Tween-80
[3] = dose: 400.0 mg/kg/injection, schedule: Q04DX003 (ip), vehicle: saline with Tween-80
[4] = dose: 100.0 mg/kg/injection, schedule: Q01DX009 (ip), vehicle: saline with Tween-80
[5] = dose: 200.0 mg/kg/injection, schedule: Q01DX009 (ip), vehicle: saline with Tween-80
[6] = dose: 50.0 mg/kg/injection, schedule: Q01DX001 (ip), vehicle: other
[7] = dose: 100.0 mg/kg/injection, schedule: Q01DX001 (ip), vehicle: other
[8] = dose: 200.0 mg/kg/injection, schedule: Q01DX001 (ip), vehicle: other
[9] = dose: 400.0 mg/kg/injection, schedule: Q01DX001 (ip), vehicle: other
[10] = dose: 100.0 mg/kg/injection, schedule: Q01DX009 (ip), vehicle: Klucel (hydroxypropylcellulose) (HPC)
[11] = dose: 200.0 mg/kg/injection, schedule: Q01DX009 (ip), vehicle: Klucel (hydroxypropylcellulose) (HPC)
[12] = dose: 400.0 mg/kg/injection, schedule: Q01DX009 (ip), vehicle: Klucel (hydroxypropylcellulose) (HPC)
[13] = dose: 100.0 mg/kg/injection, schedule: Q04DX003 (ip), vehicle: saline
[14] = dose: 200.0 mg/kg/injection, schedule: Q04DX003 (ip), vehicle: saline
[15] = dose: 400.0 mg/kg/injection, schedule: Q04DX003 (ip), vehicle: saline
[16] = dose: 12.5 mg/kg/injection, schedule: Q04DX003 (ip), vehicle: Klucel (hydroxypropylcellulose) (HPC)

CCCCn1c(N)n[nH]c1=S
T/C [1]: 100 % of control
T/C [2]: 90 % of control
T/C [3]: 94 % of control

CCOC(=O)CNc1ccc(C)c(C)c1
T/C (dose: 100.0 mg/kg/injection, schedule: Q04DX002 (ip), vehicle: Klucel (hydroxypropylcellulose) (HPC)): 95 % of control
T/C (dose: 200.0 mg/kg/injection, schedule: Q04DX002 (ip), vehicle: Klucel (hydroxypropylcellulose) (HPC)): 109 % of control
T/C (dose: 400.0 mg/kg/injection, schedule: Q04DX002 (ip), vehicle: Klucel (hydroxypropylcellulose) (HPC)): 104 % of control

CCCCOc1ccc(/C=N\N=C\c2ccc(OCCCC)cc2)cc1
T/C [4]: 90 % of control
T/C [5]: 88 % of control

O=C(NC1CCCCC1)Oc1c(Cl)cc(Cl)c(Cl)c1[N+](=O)[O-]
T/C (dose: 25.0 mg/kg/injection, schedule: Q04DX002 (ip), vehicle: saline with Tween-80): 92 % of control
T/C (dose: 50.0 mg/kg/injection, schedule: Q04DX002 (ip), vehicle: saline with Tween-80): 99 % of control
T/C (dose: 100.0 mg/kg/injection, schedule: Q04DX002 (ip), vehicle: saline with Tween-80): 99 % of control and 114 % of control

COC(=O)/C=C(\C(=O)OC)N(C)c1ccccc1
T/C [6]: 106 % of control

CNNC(=O)Cc1ccccc1
T/C [7]: 92 % of control
T/C [8]: 108 % of control
T/C [9]: 108 % of control

Cn1c(=O)c2[nH]c(C3CC=CCC3)nc2n(C)c1=O (stereo not given)
T/C [6]: 97 % of control
T/C [7]: 95 % of control
T/C [9]: 94 % of control

Cc1cc(OC(=O)Nc2ccc(F)c([N+](=O)[O-])c2)cc(C)c1Cl
T/C [10]: 101 % of control
T/C [11]: 93 % of control
T/C [12]: 95 % of control

O=C(C1CC1c1ccccc1)N1CCN(c2ccccc2)CC1 (stereo not given)
T/C [10]: 98 % of control
T/C [11]: 90 % of control
T/C [12]: 100 % of control

CCOC(=O)CC(=O)N/N=C(/C)C(=O)OCC
T/C [4]: 94 % of control
T/C [1]: 97 % of control
T/C [5]: 87 % of control
T/C [2]: 105 % of control
T/C (dose: 400.0 mg/kg/injection, schedule: Q01DX009 (ip), vehicle: saline with Tween-80): 97 % of control
T/C [3]: 105 % of control

CCOC(=O)C1CC(C(=O)OCC)c2nc3ccccc3nc21 (stereo not given)
T/C [6]: 88 % of control
T/C [7]: 92 % of control and 86 % of control
T/C [8]: 89 % of control
T/C [9]: 92 % of control

O=C(c1cccc(C(=O)N(c2ccccc2)C2CCCCC2)c1)N(c1ccccc1)C1CCCCC1
T/C [10]: 100 % of control
T/C [11]: 94 % of control
T/C [12]: 98 % of control

COc1ccc(CC(CO)C(CO)Cc2ccc(OC)c(OC)c2)cc1OC (stereo not given)
T/C [10]: 97 % of control
T/C (dose: 100.0 mg/kg/injection, schedule: Q04DX003 (ip), vehicle: Klucel (hydroxypropylcellulose) (HPC)): 98 % of control
T/C [11]: 93 % of control
T/C (dose: 200.0 mg/kg/injection, schedule: Q04DX003 (ip), vehicle: Klucel (hydroxypropylcellulose) (HPC)): 101 % of control
T/C [12]: 93 % of control
T/C (dose: 400.0 mg/kg/injection, schedule: Q04DX003 (ip), vehicle: Klucel (hydroxypropylcellulose) (HPC)): 100 % of control

CCn1nnnc1N
T/C [13]: 91 % of control
T/C [14]: 94 % of control
T/C [15]: 102 % of control

CN(C)C1C(=O)C(C(=O)NCNC(CCS)C(=O)O)=C(O)C2(O)C(=O)C3=C(O)c4c(O)cccc4C(C)(O)C3CC12 (stereo not given)
T/C (dose: 20.0 mg/kg/injection, schedule: Q01DX Z (ip), vehicle: saline): 104 % of control
T/C (dose: 40.0 mg/kg/injection, schedule: Q01DX Z (ip), vehicle: saline): 98 % of control
T/C (dose: 80.0 mg/kg/injection, schedule: Q01DX Z (ip), vehicle: saline): 96 % of control and 100 % of control
T/C (dose: 160.0 mg/kg/injection, schedule: Q01DX Z (ip), vehicle: saline): 98 % of control and 101 % of control
T/C (dose: 320.0 mg/kg/injection, schedule: Q01DX Z (ip), vehicle: saline): 100 % of control

C=CS(=O)(=O)CC
T/C (dose: 25.0 mg/kg/injection, schedule: Q04DX002 (ip), vehicle: saline): 119 % of control
T/C (dose: 50.0 mg/kg/injection, schedule: Q04DX002 (ip), vehicle: saline): 102 % of control
T/C (dose: 100.0 mg/kg/injection, schedule: Q04DX002 (ip), vehicle: saline): 102 % of control

O=C(CNCc1ccccc1)c1ccc(Cl)cc1
T/C (dose: 50.0 mg/kg/injection, schedule: Q01DX001 (ip), vehicle: Klucel (hydroxypropylcellulose) (HPC)): 93 % of control
T/C (dose: 100.0 mg/kg/injection, schedule: Q01DX001 (ip), vehicle: Klucel (hydroxypropylcellulose) (HPC)): 96 % of control
T/C (dose: 200.0 mg/kg/injection, schedule: Q01DX001 (ip), vehicle: Klucel (hydroxypropylcellulose) (HPC)): 93 % of control
T/C (dose: 400.0 mg/kg/injection, schedule: Q01DX001 (ip), vehicle: Klucel (hydroxypropylcellulose) (HPC)): 93 % of control

O=[N+]([O-])c1ccc(Nc2ccncc2)cc1
T/C (dose: 100.0 mg/kg/injection, schedule: Q01DX009 (ip), vehicle: saline): 103 % of control
T/C [13]: 106 % of control
T/C (dose: 200.0 mg/kg/injection, schedule: Q01DX009 (ip), vehicle: saline): 106 % of control
T/C [14]: 103 % of control
T/C (dose: 400.0 mg/kg/injection, schedule: Q01DX009 (ip), vehicle: saline): 104 % of control
T/C [15]: 114 % of control

O=C(O)c1c(F)c(F)c(Br)c(F)c1F
T/C (dose: 25.6 mg/kg/injection, schedule: Q04DX002 (ip), vehicle: saline with Tween-80): 168 % of control
T/C (dose: 64.0 mg/kg/injection, schedule: Q04DX002 (ip), vehicle: saline with Tween-80): 91 % of control
T/C (dose: 160.0 mg/kg/injection, schedule: Q04DX002 (ip), vehicle: saline with Tween-80): 94 % of control
T/C (dose: 400.0 mg/kg/injection, schedule: Q04DX002 (ip), vehicle: saline with Tween-80): 94 % of control

C[N+](C)(Cc1ccccc1)C1c2ccccc2-c2ccc(Br)cc21 (stereo not given)
T/C (dose: 12.5 mg/kg/injection, schedule: Q01DX009 (ip), vehicle: Klucel (hydroxypropylcellulose) (HPC)): 97 % of control
T/C [16]: 94 % of control
T/C (dose: 25.0 mg/kg/injection, schedule: Q01DX009 (ip), vehicle: Klucel (hydroxypropylcellulose) (HPC)): 92 % of control
T/C (dose: 25.0 mg/kg/injection, schedule: Q04DX003 (ip), vehicle: Klucel (hydroxypropylcellulose) (HPC)): 94 % of control
T/C (dose: 50.0 mg/kg/injection, schedule: Q01DX009 (ip), vehicle: Klucel (hydroxypropylcellulose) (HPC)): 96 % of control
T/C (dose: 50.0 mg/kg/injection, schedule: Q04DX003 (ip), vehicle: Klucel (hydroxypropylcellulose) (HPC)): 88 % of control

Cc1cc(N)c2ccccc2[n+]1CCCCCCCCCC[n+]1c(C)cc(N)c2ccccc21
T/C (dose: 0.75 mg/kg/injection, schedule: Q01DX009 (ip), vehicle: Klucel (hydroxypropylcellulose) (HPC)): 100 % of control
T/C (dose: 1.5 mg/kg/injection, schedule: Q01DX009 (ip), vehicle: Klucel (hydroxypropylcellulose) (HPC)): 109 % of control
T/C (dose: 1.5 mg/kg/injection, schedule: Q04DX003 (ip), vehicle: Klucel (hydroxypropylcellulose) (HPC)): 103 % of control
T/C (dose: 3.0 mg/kg/injection, schedule: Q01DX009 (ip), vehicle: Klucel (hydroxypropylcellulose) (HPC)): 119 % of control and 124 % of control
T/C (dose: 3.0 mg/kg/injection, schedule: Q04DX003 (ip), vehicle: Klucel (hydroxypropylcellulose) (HPC)): 110 % of control
T/C (dose: 6.0 mg/kg/injection, schedule: Q04DX003 (ip), vehicle: Klucel (hydroxypropylcellulose) (HPC)): 116 % of control
T/C [16]: 103 % of control

CC(=O)OCC(=O)[C@@]1(O)CC[C@H]2[C@@H]3C[C@@H](C)C4=CC(=O)C=C[C@]4(C)[C@H]3[C@@H](O)C[C@@]21C
T/C (dose: 75.0 mg/kg/injection, schedule: Q01DX009 (sc), vehicle: steriod suspending solution): 92 % of control
T/C (dose: 100.0 mg/kg/injection, schedule: Q04DX003 (ip), vehicle: steriod suspending solution): 97 % of control
T/C (dose: 100.0 mg/kg/injection, schedule: Q04DX003 (sc), vehicle: steriod suspending solution): 100 % of control
T/C (dose: 150.0 mg/kg/injection, schedule: Q01DX009 (sc), vehicle: steriod suspending solution): 92 % of control
T/C (dose: 200.0 mg/kg/injection, schedule: Q04DX003 (ip), vehicle: steriod suspending solution): 91 % of control
T/C (dose: 200.0 mg/kg/injection, schedule: Q04DX003 (sc), vehicle: steriod suspending solution): 102 % of control
T/C (dose: 300.0 mg/kg/injection, schedule: Q01DX009 (sc), vehicle: steriod suspending solution): 92 % of control
T/C (dose: 400.0 mg/kg/injection, schedule: Q04DX003 (ip), vehicle: steriod suspending solution): 94 % of control
T/C (dose: 400.0 mg/kg/injection, schedule: Q04DX003 (sc), vehicle: steriod suspending solution): 103 % of control
